Data from patent publication US20260207637A1, “MODULATOR FOR PROMOTING BINDING OF BUTYROPHILIN 3A1/2A1” (priority 2023, published 2026).
Like-named read-outs stand apart in the source and are kept apart here.

What was measured:
[1] = Stability experiment of compounds in human liver microsomes; assay type: in vitro ADME; details: NADPH, 37° C.
Method: Compounds were prepared as a 10 mM stock solution with DMSO and then diluted with 80% acetonitrile-water to a 100 μM working solution for later use. Human liver microsomes were obtained from BIOIVT.
(1) The liver microsomes taken out from the refrigerator were placed in a 37° C. water bath thermostatic oscillator, pre-incubated for 5 min, and thawed for later use.
(2) A certain amount of NADPH was weighed and added to an appropriate amount of magnesium chloride solution to dissolve into a 2 mM solution for later use.
(3) A mixed solution of the warm incubation system (containing no β-NADPH) was prepared according to the proportions in the “composition of the experimental warm incubation system” above and dispensed at 165 μL/tubes (45 μL/tube for the negative control group and 120 μL/tube for the positive control group).
(4) For the sample at 0 min: 200 μL of internal standard working precipitant was added and then 30 μL of NADPH solution was added.
(5) For other samples: 135 μL NADPH solution was added to initiate the reaction (45 μL magnesium chloride solution was added for the negative control group), and incubated in a 37° C. water bath for 5, 15, 30, and 60 min (incubated in a 37° C. water bath for 60 min for the negative control group), then 60 μL was sampled and added to 200 µL of precipitant containing internal standard.
(6) For the positive control group: 90 L NADPH solution was added to initiate the reaction, and incubated in a 37° C. water bath for 5, 15 min, then 60 μL was sampled and added to 200 μL of precipitant containing internal standard.
(7) For neat sample: 297 μL of water was pipetted into a tube, 1000 μL of internal standard working solution was added, and 3 μL of test compound working solution was added.
(8) All samples were vortexed and centrifuged.
(9) 150 μL of the supernatant was sampled and added to 150 μL of water, mixed uniformly by vortex, and analyzed by LC-MS/MS. The half-life stability data of human liver microsomes is as follows: […]

[2] = Pharmacokinetic test in cynomolgus monkeys; assay type: in vivo; details: IV 2 mg/kg
Method: The control compound 2 and compound 19 were formulated into 1 mg/mL solution in 10% DMSO/90% PBS. Cynomolgus monkeys were obtained from Suzhou Leo Bio Technology Co., Ltd. The control compound 2 and compound 19 were administered intravenously at 2 mg/kg, respectively. The blood collected before administration was recorded as zero point. Then 1 mL of blood was collected at eight time points: 0.083, 0.15, 0.5, 1.0 2.0, 4.0, 8.0, and 24.0, respectively. 1 mL of the collected whole blood was placed in a labeled EDTA-2K anticoagulant tube. After gently inverting up and down to fully mix the anticoagulant (EDTA-2K) with the blood, it was immediately placed in wet ice and centrifuged within 30 minutes to separate the plasma. The centrifugation conditions were set to 4° C., 2200 g, and 6 min. The plasma separated after centrifugation was placed in a labeled EP tube, and the content of compound 19 and control compound 2 in the plasma samples at different time points were detected and analyzed. There were 3 male cynomolgus monkeys in each group.

[3] = system: MIApaca/FG2 cells; assay: EC50 assay of small molecule activated γδ T cells to kill MIApaca/FG2 tumor cells (3-fold dilution protocol); assay type: cell-based; details: 0.05-100 nM, read-out: MIApaca killing (EC50)
Method: γδT cells and MIApaca/FG2 tumor cell lines were expanded and cultured in vitro. MIApaca/FG2 cells were digested, and the cells were counted and resuspended in DMEM complete medium, the density of the cell suspension was adjusted and added into a 96-well plate at 5×10^3 cells/100 […]/well for overnight incubation. On the next day, the test compound and the control compound were diluted at a 3-fold ratio with DMSO, and 4 μL of the diluted compound was added to 96 μL of culture medium for 25-fold dilution. 5 μL of 25-fold diluted compound was transferred to the corresponding well which had been plated with tumor cells, and the actual detection concentration was in the range of 0.05-100 nM. γδT cells were resuspended in γδT complete medium, and the density of the cell suspension was adjusted according to the effector-target ratio of E:T=2:1, and then the cell was added to the corresponding well at 1×10^4 cells/100 μL/well. After co-culture at 37° C., 5% CO2 for 20 hours, the cells were centrifuged. The supernatant was removed, and 50 μL of cell lysate containing fluorescein substrate was added to each well. After standing for 18 minutes in the dark, the signal of chemiluminescence was detected. The EC50 value was calculated by four-parameter fitting, with the corresponding signal value of the well with only tumor cells as the minimum killing value, and the corresponding value of the well without tumor cells as the maximum killing value. The killing data of MIApaca/FG2 cells is as follows: […]

[4] = Binding rate test of compounds and human plasma protein (equilibrium dialysis); assay type: in vitro ADME; details: human plasma, equilibrium dialysis 6 hours, 37° C.
Method: (1) The dry dialysis membrane was soaked with ultrapure water for 20 min or more than 20 min, then soaked with 20% ethanol for 30 min to 1 h, and the membrane was rinsed with ultrapure water 2-3 times. Finally, the membrane was soaked with ultrapure water for 20 minutes for later use.
(2) The frozen plasma was thawed in a water bath at 37° C.
(3) The test compound was diluted into plasma preheated to 37° C. at a final concentration of 1 μM, and the final concentration of the control compound warfarin in plasma was 2 μM.
(4) The pre-treated dialysis membrane was assembled into the dialysis plate according to the specification of the product, and 120 μL of the receiving solution (100 mM phosphate buffer solution added 0.002% Tween 80) was added to one side of the permeable membrane in each dialysis well.
(5) 20 μL of each of the final solutions of the test compound and the control compound were added into a 96-well sample plate in duplicate, and the TO sample was obtained, which was stored in a refrigerator at −20° C. Another 20 μL of the above final solution was added to the other side of the membrane in the dialysis device in duplicate, and incubated at 37° C. by shaking at constant temperature for 6 hours.
(6) After 6 hours of incubation, 20 L of each of the dialyzed receiving solution and the administered plasma were weighed to obtain sample B and sample A in duplicate. The corresponding volume of corresponding blank plasma or receiving solution was added to sample B and sample A, respectively, so that the volume ratio of plasma to buffer in each sample well was 1:1. 300 μL of acetonitrile solution containing internal standard was added to all sample wells, and centrifuged after mixed uniformly.
(7) 200 μL of ultrapure water (150 μL for the control group) was added into the corresponding sample wells of the 96-well sample plate, and 300 μL of the supernatant (150 μL for the control group) was added into the sample well; the samples were analyzed after mixed uniformly. The free percentage and recovery rate of the compound in plasma were calculated using the following formula: Plasma protein binding rate (%)=1−free percentage, wherein free percentage (%)=CB/CA
wherein CB is the concentration of the compound in the receiving solution after equilibrium dialysis, CA is the concentration of the compound in the drug-dosed plasma after equilibrium dialysis, and CT0 is the initial concentration of the compound in plasma.

Row | SMILES | T1/2 in human liver microsomes [1] [min] | Plasma concentration of the unchanged drug ([2]; 5 min) [ng/mL] | Plasma concentration of the unchanged drug ([2]; 9 min) [ng/mL] | Plasma concentration of the unchanged drug ([2]; 30 min) [ng/mL] | Plasma concentration of the unchanged drug ([2]; 1 h) [ng/mL] | AUC0-t (AUClast) ([2]; average) [ng·h/mL] | AUC0-t/AUC0-inf ([2]; average) | Cl (Cl_obs) ([2]; average) [mL/min/kg] | EC50 ([3]; γδT cells + MIApaca/FG2, E:T=2:1, co-culture 20 hours) [nM] | half-life ([1]; read-out: T1/2 in human liver microsomes) [min] | fraction unbound at 6 h, 1 μM [4] | EC50 ([3]; Homo sapiens, MIA PaCa-2, γδT cells + MIApaca/FG2, E:T=2:1, co-culture 20 hours) [nM]
1 | C/C(=C\CC[P@@](=O)(N[C@@H](C)C(=O)O[C@@H]1CCOC1)Oc1ccccc1)CO [Compound 19, (R)-tetrahydrofuran-3-yl ((S)-((R)-5-hydroxy-4-methylpent-3-en-1-yl)(phenoxy)phosphoryl)-L-alaninate] | 47.8 | 1370 | 878 | 139 | 12 | 426 | 0.959 | 76.3 | 0.28 | – | – | –
2 | C/C(=C\CCP(=O)(N[C@@H](C)C(=O)OC(C)C)Oc1ccccc1)CO (stereo partly drawn) [Control compound 1, Isopropyl (((E)-5-hydroxy-4-methylpent-3-en-1-yl)(phenoxy)phosphoryl)-L-alaninate, reference compound] | – | – | – | – | – | – | – | – | – | 8.7 | 0.073 | 0.53
